Measured values from ChEMBL document CHEMBL1201862, “PubChem BioAssay data set” (2004).
Active and inactive are the calls of the source.

Experiments:
[1] = MC4R antagonists, dose response, counter-screen for LGR2 antagonist project, cell-based, plate reader, cherry pick (AID 743444); type: functional;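 also: transfected HEK 293 cells stimulated with alpha-MSH peptide; potency of inhibitors of the alpha-MSH evoked signal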
[2] = inhibitors of HIV Env-driven cell fusion, dose response, cherry-pick (AID 652057); type: functional, cell-based
[3] = molecular target: Paired box protein Pax-8 (Homo sapiens, UniProt Q06710); test: inhibitors of PAX8-driven TPO luciferase reporter, dose response, RMG-I cells, cherry-pick (AID 687027); type: functional, cell-based;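 also: luciferase reporter driven by Pax8 target thyroperoxidase promoter measured by SteadyGlo luminescence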
[4] = HepG2 cell cytotoxicity, dose response, cytotoxicity control for Shn3 inhibitor project, CellTiter-Glo, cherry-picked (AID 624134); type: functional, cell-based
[5] = ZM109 Env clade C HIV-1 fusion inhibitors, dose response, HeLa effector, CEM target cells, luciferase, cherry-pick (AID 652058); type: functional, cell-based
[6] = inhibitors of clade B AD8 Env fusion, dose response, cell-based, cherry-pick (AID 652062); type: functional;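 also: luciferase signal from cell-cell fusion driven by HIV-1 clade B AD8 Env; potency is for inhibitors of fusion seen as a drop in luminescence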
[7] = Shn3 3'UTR reporter inhibitors, dose response, cell-based, Clone20 osteoblasts, firefly luciferase, cherry-picked (AID 624132); type: functional;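 also: firefly luciferase luminescence from reporter carrying the Shn3 3'UTR in osteoblasts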
[8] = A549 cell cytotoxicity, dose response, cytotoxicity control, plate reader, cherry-pick, antagonist series (AID 743412); type: functional, cell-based
[9] = LGR2 antagonists, dose response, cell-based, HEK293, CRE-luciferase reporter, cherry pick, set 2 (AID 743343); type: functional;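 also: transfected cells were stimulated with diluted bursicon conditioned medium after compound addition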
[10] = HepG2 cell cytotoxicity, dose response, cytotoxicity control, plate reader, cherry-pick, antagonist series (AID 743416); type: functional, cell-based
[11] = CEM21 lymphoblast cell cytotoxicity, dose response, cytotoxicity control for viral fusion inhibitor project, CellTiter-Glo luminescence, cherry-picked (AID 652042); type: functional, cell-based;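 also: potency for signal decrease meaning cytotoxicity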
[12] = off-target signal loss in HeLa-CEM21 co-culture – HeLa F-luc CTL cells, cherry-picked, counter-screen for HIV-1 Env fusion inhibitor project, dose response (AID 652040); type: functional, cell-based;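 also: potency for signal decrease marking cytotoxic or nonspecific inhibition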
[13] = molecular target: Fructose-bisphosphate aldolase (Mycobacterium tuberculosis, UniProt P9WQA3); test: Fluorescence-based biochemical high throughput dose response assay for inhibitors of the fructose-bisphosphate aldolase (FBA) of M. tuberculosis.; type: functional
[14] = HepG2 cell cytotoxicity, dose response, cytotoxicity control, ATP luminescence, cherry-pick, activator set 2 (AID 1053143); type: functional, cell-based
[15] = HEK293T cytotoxicity, dose response, cytotoxicity control for miR-122 modulator project, cell-based, inhibitor set, cherry-pick, set 2 (AID 720697); type: functional
[16] = molecular target: T1, SUMO-activating enzyme (Homo sapiens, UniProt Q9UBT2); test: SUMOylation inhibitor hit validation, confirmation, SUMOylation inhibitor project, biochemical, AlphaScreen (AID 2018); type: functional
[17] = molecular target: Albumin (Bos taurus, UniProt P02769); test: Counterscreen for inhibitors of T-cell receptor (TCR)-CD3 interaction: Fluorescence-based biochemical high throughput dose response assay to identify inhibitors of T-cell receptor (TCR)-CD3 interaction using a TAMRA-labeled BSA probe.; type: functional
[18] = molecular target: T1, SUMO-activating enzyme; test: inhibitors of in vitro SUMOylation cascade, primary screen, biochemical, HTRF, uHTS (AID 2006); type: protein-complex assay
[19] = HEK293T cytotoxicity, dose response, cytotoxicity control for miR-122 modulator project, cell-based, activator set, cherry-pick (AID 720690); type: functional;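 also: HEK293T human cells scored for general mammalian cytotoxicity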
[20] = miR-122 activators in hepatoma reporter cells, dose response, cell-based, Huh7 psiCHECK-miR122, Renilla luciferase, cherry-picked (AID 651956); type: functional;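 also: huh7 hepatoma cells stably carrying a psiCHECK-2 miR-122 sensor plasmid; renilla luciferase signal reporting endogenous miR-122 activity after 48 h compound exposure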
[21] = inhibitors of intracellular T. cruzi replication, confirmation, NIH3T3 host cells, beta-gal luminescence (AID 2044); type: functional, cell-based;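 also: intracellular parasites grown in NIH/3T3 mouse fibroblasts as host cells; luminescent beta-galactosidase reporter signal from transgenic T. cruzi replicating inside host cells; inhibitors lower the luminescence signal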
[22] = system: HeLa; test: HeLa cell cytotoxicity, dose response, cytotoxicity control, ATP luminescence, cherry-pick samples (AID 687004); type: functional, cell-based; conditions: Homo sapiens
[23] = cytotoxicity toward NIH3T3 fibroblasts, dose response, counter-screen, cell-based, ATP luminescence, mouse fibroblasts (AID 2010); type: functional; conditions: NIH3T3;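 also: cells exposed to compound for about 90 hours before reading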
[24] = system: H4; test: Luminescence Cell-Based Dose Response HTS to Identify Activators of 5'UTR Stem-Loop Driven Prion Protein mRNA Translation in H4 Neuroglioblastoma Cells. [Related pubchem assays: 1829 (Project Summary), 1814 (Primary HTS)]; type: functional; conditions: Homo sapiens
[25] = Counterscreen for activators of the function of SWI/SNF related, matrix associated, actin dependent regulator of chromatin, subfamily a, member 2 (SMARCA2, BRM): Luminescence-based cell-based high throughput dose response assay to identify non-selective compounds using the VP16 reporter assay.; type: functional
[26] = Luminescence Cell-Based Dose Confirmation HTS to Identify Activators of 5'UTR Stem-Loop Driven Alpha-Synuclein mRNA Translation in H4 Neuroglioblastoma Cells. [Related pubchem assays: 1829 (Project Summary), 1814 (Primary HTS)]; type: functional
[27] = molecular target: SWI/SNF-related matrix-associated actin-dependent regulator of chromatin subfamily A member 2 (Homo sapiens, UniProt P51531); test: Luminescence-based cell-based high throughput dose response assay to identify activators of the function of SWI/SNF related, matrix associated, actin dependent regulator of chromatin, subfamily a, member 2 (SMARCA2, BRM).; type: functional
[28] = Luminescence Cell-Based Dose Response HTS to Identify Activators of Luciferase Translation or Activity in H4 […] Cells. [Related pubchem assays: 1829 (Project Summary), 1814 (Primary HTS)]; type: functional

T1 sequence (Q9UBE0 whole entry): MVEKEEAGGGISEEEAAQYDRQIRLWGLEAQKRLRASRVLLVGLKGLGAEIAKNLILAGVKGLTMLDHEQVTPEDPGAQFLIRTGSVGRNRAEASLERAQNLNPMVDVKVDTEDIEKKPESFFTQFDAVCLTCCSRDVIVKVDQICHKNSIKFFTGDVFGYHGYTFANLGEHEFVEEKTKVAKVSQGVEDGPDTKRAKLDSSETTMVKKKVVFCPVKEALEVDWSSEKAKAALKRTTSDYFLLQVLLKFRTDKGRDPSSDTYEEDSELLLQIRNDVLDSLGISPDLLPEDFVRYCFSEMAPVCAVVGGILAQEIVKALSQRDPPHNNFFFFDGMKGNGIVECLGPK
T1 sequence (Q9UBT2 whole entry): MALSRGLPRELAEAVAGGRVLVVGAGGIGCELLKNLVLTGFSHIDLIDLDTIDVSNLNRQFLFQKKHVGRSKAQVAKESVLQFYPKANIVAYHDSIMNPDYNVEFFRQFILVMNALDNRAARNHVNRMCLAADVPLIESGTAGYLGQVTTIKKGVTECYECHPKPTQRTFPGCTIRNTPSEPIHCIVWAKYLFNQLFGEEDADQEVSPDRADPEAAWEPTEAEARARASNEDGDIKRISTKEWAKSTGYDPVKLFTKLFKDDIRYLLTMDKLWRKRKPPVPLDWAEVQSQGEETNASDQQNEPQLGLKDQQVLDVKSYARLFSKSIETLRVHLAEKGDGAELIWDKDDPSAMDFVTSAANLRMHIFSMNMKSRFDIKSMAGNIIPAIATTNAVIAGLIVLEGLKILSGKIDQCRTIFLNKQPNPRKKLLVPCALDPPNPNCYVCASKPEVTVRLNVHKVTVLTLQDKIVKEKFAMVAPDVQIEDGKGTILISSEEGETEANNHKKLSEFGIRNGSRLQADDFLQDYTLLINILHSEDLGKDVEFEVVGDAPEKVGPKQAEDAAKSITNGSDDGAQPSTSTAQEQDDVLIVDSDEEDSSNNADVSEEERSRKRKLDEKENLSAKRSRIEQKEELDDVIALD
Paired box protein Pax-8, sequence (Q06710 whole entry): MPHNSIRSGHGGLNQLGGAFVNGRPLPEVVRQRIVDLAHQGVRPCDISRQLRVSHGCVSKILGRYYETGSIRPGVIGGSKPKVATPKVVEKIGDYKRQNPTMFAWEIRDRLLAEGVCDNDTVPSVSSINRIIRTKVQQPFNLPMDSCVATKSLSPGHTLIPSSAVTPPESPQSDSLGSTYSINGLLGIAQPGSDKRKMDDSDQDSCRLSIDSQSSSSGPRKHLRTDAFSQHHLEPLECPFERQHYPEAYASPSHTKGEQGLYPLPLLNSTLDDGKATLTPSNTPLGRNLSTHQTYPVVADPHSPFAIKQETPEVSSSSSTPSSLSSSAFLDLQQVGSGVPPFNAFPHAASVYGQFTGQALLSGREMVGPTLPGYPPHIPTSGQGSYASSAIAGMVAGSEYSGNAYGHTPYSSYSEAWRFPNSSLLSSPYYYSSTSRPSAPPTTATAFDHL
SWI/SNF-related matrix-associated actin-dependent regulator of chromatin subfamily A member 2, sequence (P51531 whole entry): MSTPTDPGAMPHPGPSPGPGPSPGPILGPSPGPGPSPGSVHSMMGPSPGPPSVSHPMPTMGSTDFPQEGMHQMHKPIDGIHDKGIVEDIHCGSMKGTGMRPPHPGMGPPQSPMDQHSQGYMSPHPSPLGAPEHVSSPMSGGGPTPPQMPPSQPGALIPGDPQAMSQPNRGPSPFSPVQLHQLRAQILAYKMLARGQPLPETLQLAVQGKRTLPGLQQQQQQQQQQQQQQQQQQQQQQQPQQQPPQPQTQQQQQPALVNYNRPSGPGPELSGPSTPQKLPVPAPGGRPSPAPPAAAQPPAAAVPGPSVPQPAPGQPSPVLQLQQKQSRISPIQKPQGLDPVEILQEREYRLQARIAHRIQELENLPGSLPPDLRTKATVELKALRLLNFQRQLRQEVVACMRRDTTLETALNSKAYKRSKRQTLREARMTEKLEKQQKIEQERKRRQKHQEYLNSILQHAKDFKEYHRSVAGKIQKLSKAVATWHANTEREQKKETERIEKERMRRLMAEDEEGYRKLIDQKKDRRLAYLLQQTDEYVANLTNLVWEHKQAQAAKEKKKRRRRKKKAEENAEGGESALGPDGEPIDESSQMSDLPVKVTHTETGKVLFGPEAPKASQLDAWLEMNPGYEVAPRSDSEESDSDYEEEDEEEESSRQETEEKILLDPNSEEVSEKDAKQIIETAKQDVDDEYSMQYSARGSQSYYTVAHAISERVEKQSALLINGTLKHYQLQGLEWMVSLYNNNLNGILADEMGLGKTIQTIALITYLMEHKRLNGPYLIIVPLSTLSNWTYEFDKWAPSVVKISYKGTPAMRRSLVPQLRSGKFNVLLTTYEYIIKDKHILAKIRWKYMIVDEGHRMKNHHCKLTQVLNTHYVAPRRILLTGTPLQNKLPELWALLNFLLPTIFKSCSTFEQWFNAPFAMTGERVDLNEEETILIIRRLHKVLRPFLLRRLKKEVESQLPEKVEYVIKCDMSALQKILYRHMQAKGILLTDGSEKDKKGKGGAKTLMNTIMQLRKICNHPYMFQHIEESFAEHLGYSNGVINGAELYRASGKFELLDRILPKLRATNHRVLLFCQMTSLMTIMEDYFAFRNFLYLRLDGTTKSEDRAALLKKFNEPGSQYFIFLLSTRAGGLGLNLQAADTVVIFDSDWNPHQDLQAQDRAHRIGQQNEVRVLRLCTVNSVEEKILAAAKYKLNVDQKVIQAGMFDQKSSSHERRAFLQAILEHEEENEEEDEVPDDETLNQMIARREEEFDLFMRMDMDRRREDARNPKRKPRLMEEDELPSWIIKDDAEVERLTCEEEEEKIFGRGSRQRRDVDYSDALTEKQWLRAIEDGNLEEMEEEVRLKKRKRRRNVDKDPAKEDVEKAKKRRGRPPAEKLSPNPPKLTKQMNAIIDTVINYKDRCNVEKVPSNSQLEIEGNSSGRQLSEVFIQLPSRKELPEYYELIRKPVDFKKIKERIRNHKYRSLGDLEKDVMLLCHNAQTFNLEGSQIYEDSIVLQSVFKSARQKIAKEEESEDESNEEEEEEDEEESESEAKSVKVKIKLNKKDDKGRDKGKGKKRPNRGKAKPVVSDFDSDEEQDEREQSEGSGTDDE
Fructose-bisphosphate aldolase, sequence (P9WQA3 whole entry): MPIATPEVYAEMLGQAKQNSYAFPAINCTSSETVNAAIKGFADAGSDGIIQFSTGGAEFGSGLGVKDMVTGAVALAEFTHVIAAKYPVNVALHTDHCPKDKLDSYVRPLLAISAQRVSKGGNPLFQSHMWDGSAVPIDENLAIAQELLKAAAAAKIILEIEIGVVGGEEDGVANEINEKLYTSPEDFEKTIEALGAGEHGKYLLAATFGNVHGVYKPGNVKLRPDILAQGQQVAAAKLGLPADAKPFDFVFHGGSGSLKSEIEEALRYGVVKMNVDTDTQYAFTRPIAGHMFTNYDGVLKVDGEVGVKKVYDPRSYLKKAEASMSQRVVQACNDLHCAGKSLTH
Albumin, sequence (P02769 whole entry): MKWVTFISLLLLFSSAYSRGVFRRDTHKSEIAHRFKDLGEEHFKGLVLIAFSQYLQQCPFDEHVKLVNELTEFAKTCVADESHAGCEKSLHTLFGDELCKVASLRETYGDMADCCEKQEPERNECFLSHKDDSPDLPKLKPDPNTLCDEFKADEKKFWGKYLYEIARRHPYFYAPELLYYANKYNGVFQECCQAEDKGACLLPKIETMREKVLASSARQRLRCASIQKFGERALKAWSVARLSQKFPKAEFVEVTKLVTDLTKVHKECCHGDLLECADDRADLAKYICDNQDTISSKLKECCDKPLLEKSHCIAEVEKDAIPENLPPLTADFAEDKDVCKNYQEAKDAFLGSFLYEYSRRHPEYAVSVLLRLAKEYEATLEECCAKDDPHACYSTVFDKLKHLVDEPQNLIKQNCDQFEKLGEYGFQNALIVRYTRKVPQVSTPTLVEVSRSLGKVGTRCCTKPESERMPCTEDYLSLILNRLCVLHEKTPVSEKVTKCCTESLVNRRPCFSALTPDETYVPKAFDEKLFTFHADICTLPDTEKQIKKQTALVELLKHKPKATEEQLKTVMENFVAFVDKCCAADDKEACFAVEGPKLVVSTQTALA

O=C(Nc1cccc(-c2ccc(N3CCCCC3)nn2)c1)C(F)(F)F
AC50 [1]: 1.41 µM (active)
AC50 [2]: 3.47 µM (active)
AC50 [3]: 3.04 µM (active)
AC50 [4]: 33.1 µM (active)
AC50 [5]: 34.1 µM (active)
AC50 [6]: 6.31 µM (active)
AC50 [7]: 9.07 µM (active)
AC50 [8]: 30.2 µM (active)
AC50 [9]: 2.61 µM (active)
AC50 [10]: 43.6 µM (active)
AC50 [11]: 34.1 µM (active)
AC50 [12]: 9.6 µM (active)

Cc1ccc(-c2nc3ncccc3o2)cc1NC(=O)C(C)C
IC50 [13]: 1.5 µM (active)

O=C(NCCOc1ccccc1F)C1CC(=O)N(Cc2ccccc2)C1 (centres undefined)
AC50 [14]: > 52 µM (inactive)

CC(=O)Nc1ccc2c(c1)C(=O)N(C)[C@@H]1CC[C@H](CC(=O)NC3CCCCC3)O[C@H]1CO2
AC50 [15]: 0.457 µM (active)

Cc1c(NC(=S)N/N=C/c2cc([N+](=O)[O-])ccc2O)c(=O)n(-c2ccccc2)n1C
IC50 [16]: 1.64 µM (active)
IC50 [17]: > 94.1 µM (inactive)
IC50 [18]: 11.4 µM (active)

C[C@@H]1CN([C@@H](C)CO)C(=O)c2cc(NC(=O)Nc3cccc4ccccc34)ccc2O[C@@H](C)CCCCO[C@@H]1CN(C)CC1CCCCC1
AC50 [19]: 30.5 µM (active)
AC50 [20]: 11.6 µM (active)
AC50 [15]: 6.05 µM (active)

CCOc1ccc(C(=O)NC(=S)Nc2ccccc2N2CCC(C)CC2)cc1[N+](=O)[O-]
EC50 [21]: 1.32 µM (active)
AC50 [22]: > 52 µM (inactive)
EC50 [23]: > 60 µM (not active)

CC(C)c1ccc(/C=N/NC(=O)c2c(Cl)cnn2C)cc1
EC50 [24]: 27.5 µM (active)
EC50 [25]: > 91.2 µM (inactive)
EC50 [26]: 9.9 µM (active)
EC50 [27]: > 91.2 µM (inactive)
EC50 [28]: 0.251 µM (active)
